# What was measured:
# NF-κB [1] = biological target: T1, NF-κB (Homo sapiens, UniProt Q04206); test: Gel electromobility shift assay (EMSA), NF-κB DNA binding activity, SW620; assay type: cell-based; conditions: SW620, 30-150 μg/ml, 1 h
# T1 construct: endogenous in cells; host or cells: SW620 and HCT116 human colon cancer cells (ATCC)
# Description: (§1) FIG. 1A: Nuclear extract from SW620 (panel a) and HCT116 (panel b) colon cancer cells treated with thiacremonone (30-150 μg/ml) for 1 h was incubated in binding reactions of ^32P-end-labeled oligonucleotide containing the κB sequence. The activation of NF-κB was investigated using EMSA as described in Materials and Methods. For competition assays, nuclear extracts from cells treated with TNF-α were incubated for 1 h before EMSA with unlabled NF-κB oligonucleotide or labeled NF-κB oligonucleotide. For supershift assays, nuclear extracts from cells treated with TNF-α were incubated for 1 h before EMSA with specific antibodies against the p50 and p65 NF-κB isoforms. SS indicates supershift assay using p65 antibody (panel c). Quantification of band intensities from three independent experimental results performed by densitometry (Imaging System) and the value under each band indicated as fold difference from the untreated control group.
# (§2) Gel shift assay was performed according to the manufacturer's recommendations (Promega, Madison, Wis., USA). […] The relative density of the DNA-protein binding bands was scanned by densitometry using MyImage (SLB, Seoul, Korea), and quantified by Labworks 4.0 software (UVP Inc., Upland, Calif., USA).
# NF-κB [2] = biological target: T1, NF-κB; test: Gel electromobility shift assay (EMSA), NF-κB DNA binding activity, HCT116; assay type: cell-based; conditions: HCT116, 30-150 μg/ml, 1 h
# Description: as §1, §2
# NF-κB [3] = test: NF-κB luciferase reporter assay (pNF-κB-Luc), SW620; assay type: cell-based, human; conditions: SW620, 30-150 μg/ml, 8 h
# Description: (§3) FIG. 1B: Colon cancer cells were transfected with pNF-κB-Luc plasmid (5×NF-κB) and then activated with TNF-α (150 U/ml) alone or TNF-α plus different concentrations (30-150 μg/ml) of thiacremonone at 37° C. in both SW620 (panel a and b) and HCT116 (panel c and d) colon cancer cells, and then the luciferase activity was determined. All values represent mean±S.D. of three independent experiments performed in triplicate. RLU is relative to luciferase activity in transfected unstimulated cells. *P<0.05 indicates statistically significant differences from the TNF-α-treated group.
# (§4) SW620 and HCT116 human colon cells (2.5×10^5 cells/cm^2) were plated in 24-well plates and transiently transfected with pNF-κB-Luc plasmid (5×NF-κB; Stratagene, La Jolla, Calif., USA) using a mixture of plasmid and lipofectAMINE PLUS in OPTI-MEN according to manufacturer's specifications (Invitrogen, Carlsbad, Calif., USA). The transfected cells were treated with tumor necrosis factor-α (TNF-α) (10 ng/ml) or TPA (50 nM) and different concentrations (30-150 μg/ml) of thiacremonone for 8 h. Luciferase activity was measured by using the luciferase assay kit (Promega, Madison, Wis., USA) according to the manufacturer's instructions (WinGlow, Bad Wildbad, Germany).
# NF-κB [4] = test: NF-κB luciferase reporter assay (pNF-κB-Luc), HCT116; assay type: cell-based, human; conditions: HCT116, 30-150 μg/ml, 8 h
# Description: as §3, §4
# SW620 colon cancer cells [5] = test: Cell viability / growth, CCK-8 assay, SW620; assay type: cell-based; conditions: Homo sapiens, SW-620, read-out: IC50 of cell growth inhibition, heading: IC50 of cell growth inhibition, SW620, 48 h
# Description: (§5) Panel b of FIGS. 2A-2C: Cell viability was determined by CCK-8 assay as described in Materials and Methods. SW620 (FIG. 2A) and HCT116 (FIG. 2B) colon cancer cells as well as normal cells (Caco-2) (FIG. 2C) were treated with various doses (30-150 μg/ml) of thiacremonone for different times (12-48 h). Values are each the mean±S.D. of three experiments, each performed in triplicate.
# (§6) SW620 and HCT116 colon cancer cells were plated at a density of 10^4 cells/well in 96-well plates per 100 μl medium. To determine the appropriate concentration that is not cytotoxic to the cells, the cytotoxic effect was evaluated in cells cultured for 12, 24, 36, and 48 h using the cell counting kit-8 assay kit according to the manufacturer's instructions (Dojindo, Gaithersburg, Md., USA). Briefly, 10 μl of the CCK-8 solution was added to cells cultured for the designated time. The plates were incubated for 1-4 h in the incubator. The resulting color was assayed at […] using a microplate absorbance reader (Sunrise, Tecan, Switzerland). Each assay was carried out in triplicate.
# [6] = test system: HCT116 colon cancer cells; test: Cell viability / growth, CCK-8 assay, HCT116; assay type: cell-based; conditions: Homo sapiens, HCT-116, HCT116, 48 h, read-out: IC50 of cell growth inhibition
# Description: as §5, §6
# [7] = test system: normal colon Caco-2 cells; test: Cell viability, CCK-8 assay, normal cells; assay type: cell-based; conditions: Caco-2, 30-150 μg/ml, 12-48 h
# Description: as §5, §6
# SW620 colon cancer cells [8] = test: Apoptosis detection, DAPI/TUNEL staining, SW620; assay type: cell-based, human; conditions: 24 h
# Description: (§7) FIG. 3B: The apoptotic index was determined as the DAPI-stained TUNEL-positive cell number counted. Values are mean±S.E.M. of three experiments, each performed in triplicate. *P<0.05 indicates statistically significant differences from the untreated group.
# (§8) Apoptosis assay was first performed by using 4,6-diamino-2-phenylindole (DAPI) staining. SW620 and HCT116 human colon cancer cells were cultured in the absence or presence of increasing concentrations of thiacremonone, and induction of apoptotic cell death was evaluated after 24 h. Apoptotic cells were determined by the morphological changes after DAPI staining under fluorescence microscopic observation (DAS microscope, 100× or 200×: Leica Microsystems, Inc., Deefield, Ill., USA). Apoptosis was also evaluated by TUNEL staining assay. In short, cells were cultured on 8-chamber slides. After treatment with thiacremonone (30-150 μg/ml) for 24 h, the cells were washed twice with PBS and fixed by incubation in 4% paraformaldehyde in PBS for 1 h at room temperature. TUNEL assays were performed by using the in situ Cell Death Detection Kit (Roche Diagonostics GmbH, Mannheim, Germany) according to manufacturer's instructions. Total number of cells in a given area was determined by using DAPI and TUNEL staining. The apoptotic index was determined as the number of DAPIstained TUNEL-positive cells divided by the total cell number counted ×100.
# [9] = test system: HCT116 colon cancer cells; test: Apoptosis detection, DAPI/TUNEL staining, HCT116; assay type: cell-based, human; conditions: 24 h
# Description: as §7, §8
# SW620 colon cancer cells [10] = test: Western blot of apoptosis regulatory proteins, SW620; assay type: cell-based, human; conditions: SW620, 30-150 μg/ml, 24 h
# Description: (§9) The cells were treated with different concentrations (30-150 μg/ml) of thiacremonone at 37° C. for 24 h. Equal amounts of total proteins (50 μg/lane) were subjected to 12% SDS-PAGE. Expressions of Bax, cleaved caspase-3, cleaved PARP, Bcl-2, cIAP1/2, XIAP, and β-actin were detected by western blotting using specific antibodies. β-Actin protein was used an internal control. Panel a: SW620 colon cancer cells. Panel b: HCT116 colon cancer cells. Each band is representative of three independent experiments.
# (§10) Cultured cells were washed twice with 1×PBS, followed by the addition of 1 ml of PBS, and the cells were scraped into a cold Eppendorf tube. Cells were homogenized with lysis buffer [50 mM Tris pH 8.0, 150 mM NaCl, 0.02% sodium azide, 0.2% SDS, 1 mM PMFS, 10 μl/ml aprotinin, 1% igapel 630 (Sigma-Aldrich, St. Louis, Mo., USA), 10 mM NaF, 0.5 mM EDTA, 0.1 mM EGTA, and 0.5% sodium deoxycholate] and centrifuged at 23,000×g for 15 min. The protein concentration was measured by the Bradford method (Bio-Rad Protein Assay; Bio-Rad Laboratories Inc., Hercules, Calif., USA), and equal amount of proteins (50 μg) were separated on a SDS/12%-polyacrylamide gel and then transferred to a Hybond ECL nitrocellulose membrane (Amersham Pharmacia Biotech Inc., Piscataway, N.J., USA). Blots were blocked for 2 h at room temperature with 5% (w/v) non-fat dried milk in Tris-buffered saline [10 mM Tris (pH 8.0) and 150 mM NaCl] solution containing 0.05% tween-20. […] Immunoreactive proteins were detected with the ECL Western blotting detection system. The relative density of the protein bands was scanned by densitometry using MyImage (SLB) and quantified by Labworks 4.0 software (UVP Inc.).
# [11] = test system: HCT116 colon cancer cells; test: Western blot of apoptosis regulatory proteins, HCT116; assay type: cell-based, human; conditions: HCT116, 30-150 μg/ml, 24 h
# Description: as §9, §10
# SW620 xenograft = test: SW620 colon xenograft in nude mice; assay type: in vivo; conditions: for tumor volume, % of sham control group: day 31
# Description: To elucidate the anticancer effect of thiacremonone in vivo, the tumor growth on colon xenograft bearing nude mice following thiacremonone treatments were investigated. In SW620 xenograft studies, thiacremonone was administrated intraperitoneally twice per week for 4 weeks to mice with tumors ranging from 100 to 300 mm3 of tumor volume. The mice were weighted twice per week. The change of body weights between saline and thiacremonone-administrated mice (n=10) was not different during the experiment.
# FIG. 5 represents the relative tumor growth delay measured after treatment of thiacremonone (240 and 360 mg/kg for four weeks, n=10) in comparison with the sham control group (saline).
# T1 sequence (Q04206 whole entry): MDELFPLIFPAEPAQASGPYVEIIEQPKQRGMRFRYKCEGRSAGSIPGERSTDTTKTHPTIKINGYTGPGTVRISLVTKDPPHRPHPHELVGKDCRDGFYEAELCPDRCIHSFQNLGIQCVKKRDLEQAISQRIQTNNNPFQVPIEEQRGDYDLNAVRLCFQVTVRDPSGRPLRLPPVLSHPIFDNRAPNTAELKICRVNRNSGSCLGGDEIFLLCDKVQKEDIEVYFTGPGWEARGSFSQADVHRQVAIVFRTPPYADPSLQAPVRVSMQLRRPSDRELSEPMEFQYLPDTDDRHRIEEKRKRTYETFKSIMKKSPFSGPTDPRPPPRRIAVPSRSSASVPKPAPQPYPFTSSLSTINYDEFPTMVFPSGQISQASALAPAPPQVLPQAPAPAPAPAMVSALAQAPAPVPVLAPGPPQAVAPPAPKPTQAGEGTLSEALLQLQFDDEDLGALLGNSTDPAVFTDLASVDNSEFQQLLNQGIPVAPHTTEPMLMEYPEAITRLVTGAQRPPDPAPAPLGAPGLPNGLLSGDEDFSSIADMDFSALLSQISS
# T1 sequence (P19838 1-433 partner limits assumed): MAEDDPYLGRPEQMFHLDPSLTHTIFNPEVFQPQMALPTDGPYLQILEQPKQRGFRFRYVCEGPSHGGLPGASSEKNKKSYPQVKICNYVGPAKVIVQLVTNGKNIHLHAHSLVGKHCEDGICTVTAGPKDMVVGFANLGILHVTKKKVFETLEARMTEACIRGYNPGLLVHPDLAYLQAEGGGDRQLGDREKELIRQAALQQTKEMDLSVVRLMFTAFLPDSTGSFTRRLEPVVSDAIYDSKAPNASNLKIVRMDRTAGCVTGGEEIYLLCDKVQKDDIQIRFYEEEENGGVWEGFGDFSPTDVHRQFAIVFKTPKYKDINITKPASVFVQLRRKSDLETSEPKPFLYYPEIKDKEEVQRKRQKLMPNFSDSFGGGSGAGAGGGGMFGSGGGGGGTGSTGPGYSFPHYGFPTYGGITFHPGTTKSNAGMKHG
compound,measurement,setting,value
"CC1=C(O)C(=O)C(C)(O)S1 (centres unmarked) [thiacremonone, 2,4-dihydroxy-2,5-dimethyl-thiophene-3-one]",DNA binding activity of NF-κB,NF-κB [1],decreased DNA binding activity of NF-κB in a dose-dependent manner
same,DNA binding activity of NF-κB,NF-κB [2],decreased DNA binding activity of NF-κB in a dose-dependent manner
same,TNF-α and TPA induced NF-κB luciferase activity,NF-κB [3],inhibited TNF-α and TPA induced NF-κB luciferase activity dose-dependently
same,TNF-α and TPA induced NF-κB luciferase activity,NF-κB [4],inhibited TNF-α and TPA induced NF-κB luciferase activity dose-dependently
same,IC50,SW620 colon cancer cells [5],105 mg/L
same,IC50,[6],130 mg/L
same,cytotoxic effect,[7],no cytotoxic effect
same,apoptotic cell number (DAPI-positive TUNEL-stained cells),"SW620 colon cancer cells [8]; SW620, 30 μg/ml",0%
same,apoptotic cell number (DAPI-positive TUNEL-stained cells),"SW620 colon cancer cells [8]; SW620, 60 μg/ml",0%
same,apoptotic cell number (DAPI-positive TUNEL-stained cells),"SW620 colon cancer cells [8]; SW620, 90 μg/ml",11%
same,apoptotic cell number (DAPI-positive TUNEL-stained cells),"SW620 colon cancer cells [8]; SW620, 120 μg/ml",25%
same,apoptotic cell number (DAPI-positive TUNEL-stained cells),"SW620 colon cancer cells [8]; SW620, 150 μg/ml",97%
same,apoptotic cell number,"[9]; HCT116, 30 μg/ml",0%
same,apoptotic cell number,"[9]; HCT116, 60 μg/ml",0%
same,apoptotic cell number,"[9]; HCT116, 90 μg/ml",29%
same,apoptotic cell number,"[9]; HCT116, 120 μg/ml",95%
same,apoptotic cell number,"[9]; HCT116, 150 μg/ml",98%
same,"Expressions of apoptotic proteins Bax, cleaved caspases 3, cleaved PARP",SW620 colon cancer cells [10],increased
same,"expressions of antiapoptotic protein Bcl-2, cIAP1/2, XIAP and cyclin D1",SW620 colon cancer cells [10],decreased
same,iNOS and COX-2 expression,SW620 colon cancer cells [10],inhibited the expressions dose-dependently
same,"Expressions of apoptotic proteins Bax, cleaved caspases 3, cleaved PARP",[11],increased
same,"expressions of antiapoptotic protein Bcl-2, cIAP1/2, XIAP and cyclin D1",[11],decreased
same,iNOS and COX-2 expression,[11],inhibited the expressions dose-dependently
same,"tumor volume, % of sham control group",SW620 xenograft; 240 mg/kg intraperitoneally twice per week for 4 weeks,92.5%
same,"tumor volume, % of sham control group",SW620 xenograft; 360 mg/kg intraperitoneally twice per week for 4 weeks,59.1%
same,change of body weights versus saline,"SW620 xenograft; intraperitoneally twice per week for 4 weeks, nude mice",not different
